Measured values from patent publication US20250230193A1, “CYCLIC COMPOUND HAVING SELECTIVE KRAS INHIBITORY EFFECT ON HRAS AND NRAS” (CHUGAI SEIYAKU KABUSHIKI KAISHA, priority 2022, published 2025).

Tests used:
[1] = biological target: GDP-bound HRAS wild-type protein (Homo sapiens, UniProt P01112); assay: Binding to HRAS by surface plasmon resonance (SPR), Single Cycle Kinetics; details: KD ratio HRAS/KRAS, class symbols
[2] = biological target: GDP-bound NRAS wild-type protein (Homo sapiens, UniProt P01111); assay: Binding to NRAS by surface plasmon resonance (SPR), Single Cycle Kinetics; details: KD ratio NRAS/KRAS, class symbols
Sequence of GDP-bound NRAS wild-type protein (P01111 whole entry): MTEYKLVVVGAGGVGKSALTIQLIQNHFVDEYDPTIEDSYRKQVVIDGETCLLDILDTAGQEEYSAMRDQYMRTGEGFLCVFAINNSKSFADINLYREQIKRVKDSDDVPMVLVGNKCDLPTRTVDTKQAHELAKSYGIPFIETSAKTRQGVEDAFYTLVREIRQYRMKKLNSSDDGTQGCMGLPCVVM

Sequence of GDP-bound HRAS wild-type protein (P01112 whole entry): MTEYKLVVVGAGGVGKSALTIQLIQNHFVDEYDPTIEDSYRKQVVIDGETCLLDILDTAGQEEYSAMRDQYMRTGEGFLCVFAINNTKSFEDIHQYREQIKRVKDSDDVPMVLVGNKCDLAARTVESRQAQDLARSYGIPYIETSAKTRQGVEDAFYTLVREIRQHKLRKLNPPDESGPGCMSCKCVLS

SMILES | HRAS/KRAS (ratio of KD value with respect to GDP-bound HRAS wild-type protein to KD value with respect to KRAS) [1] | NRAS/KRAS (ratio of KD value with respect to GDP-bound NRAS wild-type protein to KD value with respect to KRAS) [2]
CCCO[C@@H]1C[C@H]2C(=O)N(C)C3(CC(C)(C)C3)C(=O)N(C)[C@@H](C(CC)CC)C(=O)N(C)[C@H](C(=O)N(C)C)CC(=O)N(C)[C@@H](COC)C(=O)N[C@@H]([C@@H](C)CC)C(=O)N(C)CC(=O)N(C)[C@H]3C/C=C\CCN(C3=O)[C@@H](Cc3ccc(C)cc3)C(=O)N(C)CC(=O)N[C@@H](CCc3ccc(Cl)c(Cl)c3)C(=O)N2C1 [PP2812] | A (a compound having 10 or more and less than 20 is denoted as A) | AA (a compound having 20 or more is denoted as AA)
CCC[C@H]1C(=O)N[C@@H]([C@@H](C)CC)C(=O)N(C2CC2)CC(=O)N(C)[C@H]2C/C=C\CCN(C2=O)[C@@H](Cc2ccc(C(F)(F)F)cc2)C(=O)N(C)CC(=O)N[C@@H](CCc2cc(F)c(C(F)(F)F)c(F)c2)C(=O)N2C[C@H](OCC)C[C@H]2C(=O)NC2(CC(C)(C)C2)C(=O)N(C)[C@@H](CC2CC2)C(=O)N(C)[C@H](C(=O)N(C)C)CC(=O)N1C [PP2813] | A (a compound having 10 or more and less than 20 is denoted as A) | AA (a compound having 20 or more is denoted as AA)
CCC(CC)[C@H]1C(=O)N(C)[C@H](C(=O)N(C)C)CC(=O)N(C)[C@@H](COC)C(=O)N[C@@H]([C@@H](C)CC)C(=O)N(C)CC(=O)N(C)[C@H]2C/C=C\CCN(C2=O)[C@@H](Cc2ccc(C)cc2)C(=O)N(C)CC(=O)N[C@@H](CCc2ccc(Cl)c(Cl)c2)C(=O)N2C[C@H](OC(C)C)C[C@H]2C(=O)N(C)C2(CC(C)(C)C2)C(=O)N1C [PP2814] | A (a compound having 10 or more and less than 20 is denoted as A) | AA (a compound having 20 or more is denoted as AA)
CCC[C@H]1C(=O)N[C@@H]([C@@H](C)CC)C(=O)N(C2CC2)CC(=O)N(C)[C@H]2C/C=C\CCN(C2=O)[C@@H](Cc2ccc(C(F)(F)F)cc2)C(=O)N(C)CC(=O)N[C@@H](CCc2ccc(C(F)(F)F)c(OC)c2)C(=O)N2C[C@H](OCC)C[C@H]2C(=O)NC2(CC(C)(C)C2)C(=O)N(C)[C@@H](CC2CC2)C(=O)N(C)[C@H](C(=O)N(C)C)CC(=O)N1C [PP2815] | A (a compound having 10 or more and less than 20 is denoted as A) | A (a compound having 10 or more and less than 20 is denoted as A)
CCC(CC)[C@H]1C(=O)N(C)[C@H](C(=O)N(C)C)CC(=O)N(C)[C@@H](COC)C(=O)N[C@@H]([C@@H](C)CC)C(=O)N(C)CC(=O)N(C)[C@H]2C/C=C\CCN(C2=O)[C@@H](Cc2ccc(C)cc2)C(=O)N(C)CC(=O)N[C@@H](CCc2ccc(Cl)c(Cl)c2)C(=O)N2C[C@H](OC3CCC3)C[C@H]2C(=O)N(C)C2(CC(C)(C)C2)C(=O)N1C [PP2816] | A (a compound having 10 or more and less than 20 is denoted as A) | AA (a compound having 20 or more is denoted as AA)
CCC[C@H]1C(=O)N[C@@H]([C@@H](C)CC)C(=O)N(C2CC2)CC(=O)N(C)[C@H]2C/C=C\CCN(C2=O)[C@@H](Cc2ccc(C(F)(F)F)cc2)C(=O)N(C)CC(=O)N[C@@H](CCc2ccc(Cl)c(Cl)c2)C(=O)N2C[C@H](OCC)C[C@H]2C(=O)NC2(CC(C)(C)C2)C(=O)N(C)[C@@H](CC2CC2)C(=O)N(C)[C@H](C(=O)N(C)C)CC(=O)N1C [PP2817] | A (a compound having 10 or more and less than 20 is denoted as A) | A (a compound having 10 or more and less than 20 is denoted as A)
CCC(CC)[C@H]1C(=O)N(C)[C@H](C(=O)N(C)C)CC(=O)N(C)[C@@H](COC)C(=O)N[C@@H]([C@@H](C)CC)C(=O)N(C)CC(=O)N(C)[C@H]2C/C=C\CCN(C2=O)[C@@H](Cc2ccc(C)cc2)C(=O)N(C)CC(=O)N[C@@H](CCc2ccc(Cl)c(Cl)c2)C(=O)N2C[C@H](OC3CCCC3)C[C@H]2C(=O)N(C)C2(CC(C)(C)C2)C(=O)N1C [PP2818] | A (a compound having 10 or more and less than 20 is denoted as A) | A (a compound having 10 or more and less than 20 is denoted as A)
CCC[C@H]1C(=O)N[C@@H]([C@@H](C)CC)C(=O)N(C2CC2)CC(=O)N(C)[C@H]2C/C=C\CCN(C2=O)[C@@H](Cc2ccc(C(F)(F)F)cc2)C(=O)N(C)CC(=O)N[C@@H](CCc2ccc(Cl)c(Cl)c2)C(=O)N2C[C@H](OCC)C[C@H]2C(=O)NC2(CC(C)(C)C2)C(=O)N(C)[C@@H](CC2CCC2)C(=O)N(C)[C@H](C(=O)N(C)C)CC(=O)N1C [PP2819] | A (a compound having 10 or more and less than 20 is denoted as A) | A (a compound having 10 or more and less than 20 is denoted as A)
CCC(CC)[C@H]1C(=O)N(C)[C@H](C(=O)N(C)C)CC(=O)N(C)[C@@H](COC)C(=O)N[C@@H]([C@@H](C)CC)C(=O)N(C)CC(=O)N(C)[C@H]2C/C=C\CCN(C2=O)[C@@H](Cc2ccc(C)cc2)C(=O)N(C)CC(=O)N[C@@H](CCc2ccc(Cl)c(Cl)c2)C(=O)N2CC3(CC3)C[C@H]2C(=O)N(C)C2(CC(C)(C)C2)C(=O)N1C [PP2820] | A (a compound having 10 or more and less than 20 is denoted as A) | AA (a compound having 20 or more is denoted as AA)
CCO[C@@H]1C[C@H]2C(=O)NC3(CC(C)(C)C3)C(=O)N(C)[C@@H](CC3CCC3)C(=O)N(C)[C@H](C(=O)N(C)C)CC(=O)N(C)[C@@H](COC)C(=O)N[C@@H]([C@@H](C)CC)C(=O)N(C3CC3)CC(=O)N(C)[C@H]3C/C=C\CCN(C3=O)[C@@H](Cc3ccc(C(F)(F)F)cc3)C(=O)N(C)CC(=O)N[C@@H](CCc3ccc(Cl)c(Cl)c3)C(=O)N2C1 [PP2821] | A (a compound having 10 or more and less than 20 is denoted as A) | A (a compound having 10 or more and less than 20 is denoted as A)
CCO[C@@H]1C[C@H]2C(=O)NC3(CC(C)(C)C3)C(=O)N(C)[C@@H](C3CCCC3)C(=O)N(C)[C@H](C(=O)N(C)CC)CC(=O)N(C)[C@@H](CC)C(=O)N[C@@H]([C@@H](C)CC)C(=O)N(C)CC(=O)N(C)[C@H]3C/C=C\CCN(C3=O)[C@@H](Cc3ccc(C(F)(F)F)cc3)C(=O)N(C)CC(=O)N[C@@H](CCc3ccc(Cl)c(Cl)c3)C(=O)N2C1 [PP2822] | A (a compound having 10 or more and less than 20 is denoted as A) | A (a compound having 10 or more and less than 20 is denoted as A)
CCO[C@@H]1C[C@H]2C(=O)NC3(CC(C)(C)C3)C(=O)N(C)[C@@H](C3CCCC3)C(=O)N(C)[C@H](C(=O)N(C)CC)CC(=O)N(C)[C@@H](CC)C(=O)N[C@@H]([C@@H](C)CC)C(=O)N(C)CC(=O)N(C)[C@H]3C/C=C\CCN(C3=O)[C@@H](Cc3ccc(C(F)(F)F)cc3)C(=O)N(C)CC(=O)N[C@@H](CCc3ccc(C(F)(F)F)c(Cl)c3)C(=O)N2C1 [PP2823] | A (a compound having 10 or more and less than 20 is denoted as A) | A (a compound having 10 or more and less than 20 is denoted as A)
CCO[C@@H]1C[C@H]2C(=O)NC3(CCC3)C(=O)N(C)[C@@H](C3CCCC3)C(=O)N(C)[C@H](C(=O)N(C)CC)CC(=O)N(C)[C@@H](CC3CCC3)C(=O)N[C@@H]([C@@H](C)CC)C(=O)N(C)CC(=O)N(C)[C@H]3C/C=C\CCN(C3=O)[C@@H](Cc3ccc(C(F)(F)F)cc3)C(=O)N(C)CC(=O)N[C@@H](CCc3ccc(Cl)c(Cl)c3)C(=O)N2C1 [PP2824] | A (a compound having 10 or more and less than 20 is denoted as A) | A (a compound having 10 or more and less than 20 is denoted as A)
CCO[C@@H]1C[C@H]2C(=O)NC3(CCC3)C(=O)N(C)[C@@H](C3CCCC3)C(=O)N(C)[C@H](C(=O)N(C)CC)CC(=O)N(C)[C@@H](CC3CCC3)C(=O)N[C@@H]([C@@H](C)CC)C(=O)N(C)CC(=O)N(C)[C@H]3C/C=C\CCN(C3=O)[C@@H](Cc3ccc(C(F)(F)F)cc3)C(=O)N(C)CC(=O)N[C@@H](CCc3ccc(C(F)(F)F)c(OC)c3)C(=O)N2C1 [PP2825] | B (a compound having 3 or more and less than 10 is denoted as B) | A (a compound having 10 or more and less than 20 is denoted as A)
CCO[C@@H]1C[C@H]2C(=O)NC3(CCC3)C(=O)N(C)[C@@H](C3CCCC3)C(=O)N(C)[C@H](C(=O)N(C)CC)CC(=O)N(C)[C@@H](CC3CCC3)C(=O)N[C@@H]([C@@H](C)CC)C(=O)N(C)CC(=O)N(C)[C@H]3C/C=C\CCN(C3=O)[C@@H](Cc3ccc(C(F)(F)F)cc3)C(=O)N(C)CC(=O)N[C@@H](CCc3ccc(C(F)(F)F)c(Cl)c3)C(=O)N2C1 [PP2826] | A (a compound having 10 or more and less than 20 is denoted as A) | A (a compound having 10 or more and less than 20 is denoted as A)
